Results published in patent US6248747A, “5-(heterocyclic alkyl)-6-aryl-dihydropyrimidines” (Synaptic Pharmaceutical Corporation, priority 1999, dated 2001).
Like-named read-outs stand apart in the source and are kept apart here.

What was measured:
[1] = tested on: benign prostatic hyperplasia (BPH); details: literature report (phenoxybenzamine: M. Caine et al. 1976); cited from earlier work
[2] = cited from earlier work
[3] = molecular target: T1, cloned human α1a receptor (Homo sapiens, UniProt P25100); test: Radioligand binding affinity at cloned human α1a receptor ([3H]prazosin); details: LM(tk-) cell membranes, SEM and n
T1 construct: The entire coding region of α1A (1719 bp); expressed in transfected cells; host or cells: LM(tk-) cells, membranes
T1 sequence (P25100 1-572): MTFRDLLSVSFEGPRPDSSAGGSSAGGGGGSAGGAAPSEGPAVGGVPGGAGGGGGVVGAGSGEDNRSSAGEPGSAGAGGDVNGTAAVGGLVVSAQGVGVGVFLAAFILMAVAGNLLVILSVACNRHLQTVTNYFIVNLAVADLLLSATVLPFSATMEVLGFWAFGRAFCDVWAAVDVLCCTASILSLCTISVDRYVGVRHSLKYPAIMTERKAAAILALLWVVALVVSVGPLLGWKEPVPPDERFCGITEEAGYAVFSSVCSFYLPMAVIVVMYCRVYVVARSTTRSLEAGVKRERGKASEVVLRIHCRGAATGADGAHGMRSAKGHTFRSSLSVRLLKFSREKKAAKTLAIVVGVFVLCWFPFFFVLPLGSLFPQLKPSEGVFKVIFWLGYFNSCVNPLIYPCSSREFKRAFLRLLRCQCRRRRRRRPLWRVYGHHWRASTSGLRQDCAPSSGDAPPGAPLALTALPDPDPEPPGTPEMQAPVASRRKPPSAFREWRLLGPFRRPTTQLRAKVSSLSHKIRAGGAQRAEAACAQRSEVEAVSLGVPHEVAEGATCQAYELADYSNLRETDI
Experimental: (§1) The protocols for these experiments are given below.
(§2) These cell lines were prepared by transfecting the cloned cDNA or cloned genomic DNA or constructs containing both genomic DNA and cDNA encoding the human α-adrenergic receptors as follows:
(§3) Radioligand Binding Assays: Transfected cells from culture flasks were scraped into 5 ml of 5 mM Tris-HCl, 5 mM EDTA, pH 7.5, and lysed by sonication. The cell lysates were centrifuged at 1000 rpm for 5 min at 4° C., and the supernatant was centrifuged at 30,000×g for 20 min at 4° C. The pellet was suspended in 50 mM Tris-HCl, 1 mM MgCl2, and 0.1% ascorbic acid at pH 7.5. […] Nonspecific binding was determined in the presence of 10 μM phentolamine. The reaction was stopped by filtration through GF/B filters using a cell harvester.

[4] = molecular target: T2, cloned human α1b receptor (Homo sapiens, UniProt P35368); test: Radioligand binding affinity at cloned human α1b receptor ([3H]prazosin); details: LM(tk-) cell membranes, SEM and n
T2 construct: The entire coding region of α1B (1563 bp); expressed in transfected cells; host or cells: LM(tk-) cells, membranes; vector pCEXV-3
T2 sequence (P35368 1-520): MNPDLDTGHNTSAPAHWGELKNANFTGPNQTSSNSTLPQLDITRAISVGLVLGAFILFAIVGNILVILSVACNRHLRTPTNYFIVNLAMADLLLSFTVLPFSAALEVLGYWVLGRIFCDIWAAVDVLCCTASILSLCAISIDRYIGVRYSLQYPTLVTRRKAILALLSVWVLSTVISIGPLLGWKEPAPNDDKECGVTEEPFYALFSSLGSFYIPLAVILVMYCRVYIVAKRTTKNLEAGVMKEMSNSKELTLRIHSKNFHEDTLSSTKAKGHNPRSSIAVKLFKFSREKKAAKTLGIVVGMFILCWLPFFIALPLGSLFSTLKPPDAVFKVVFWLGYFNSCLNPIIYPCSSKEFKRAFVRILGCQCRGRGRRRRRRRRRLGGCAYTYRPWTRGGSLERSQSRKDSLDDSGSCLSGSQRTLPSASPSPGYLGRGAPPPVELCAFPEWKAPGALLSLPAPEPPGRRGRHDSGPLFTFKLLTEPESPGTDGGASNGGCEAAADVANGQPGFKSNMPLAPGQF
Experimental: as §1, §2
The construct involved ligating the full-length containing EcoRI brainstem cDNA fragment from λ ZapII into the expression vector. Stable cell lines were selected as described above.
as §3

[5] = molecular target: T3, cloned human α1c receptor (Homo sapiens, UniProt P35348); test: Radioligand binding affinity at cloned human α1c receptor ([3H]prazosin); details: LM(tk-) cell membranes, SEM and n
T3 construct: The entire coding region of α1C (1401 bp); expressed in transfected cells; host or cells: LM(tk-) cells, membranes; vector EXJ.RH (derived from pCEXV-3)
T3 sequence (P35348 1-466): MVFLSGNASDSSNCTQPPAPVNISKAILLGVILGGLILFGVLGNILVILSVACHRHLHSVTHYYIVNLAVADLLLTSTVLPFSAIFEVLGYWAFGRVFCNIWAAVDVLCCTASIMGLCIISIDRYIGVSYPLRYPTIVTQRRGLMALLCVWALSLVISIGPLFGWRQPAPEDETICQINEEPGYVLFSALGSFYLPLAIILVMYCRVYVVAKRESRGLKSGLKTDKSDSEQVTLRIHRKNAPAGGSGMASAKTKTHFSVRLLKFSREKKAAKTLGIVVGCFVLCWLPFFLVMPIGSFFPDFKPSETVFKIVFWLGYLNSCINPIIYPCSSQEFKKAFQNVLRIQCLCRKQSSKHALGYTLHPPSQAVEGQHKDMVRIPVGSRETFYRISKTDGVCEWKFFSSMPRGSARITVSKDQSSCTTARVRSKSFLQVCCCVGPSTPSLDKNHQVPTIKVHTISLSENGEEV
Experimental: as §1, §2
The construct involved ligating three partial overlapping fragments: a 5' 0.6 kb HincII genomic clone, a central 1.8 EcoRI hippocampal cDNA clone, and a 3' 0.6 Kb PstI genomic clone. The hippocampal cDNA fragment overlaps with the 5' and 3' genomic clones so that the HincII and PstI sites at the 5' and 3' ends of the cDNA clone, respectively, were utilized for ligation. This full-length clone was cloned into the KpnI site of the expression vector, using the 5' and 3' KpnI sites of the fragment, derived from vector (i.e., pBluescript) and 3'-untranslated sequences, respectively. Stable cell lines were selected as described above.
as §3, with “The reaction was stopped by filtration through GF/B filters using a cell harvester.” left out

Structure (SMILES) | usefulness in treating BPH [1] | side effects ([2]; background statement) | other results
CC(COc1ccccc1)N(CCCl)Cc1ccccc1 (stereo not shown) [phenoxybenzamine] | useful in relieving the symptoms of BPH | significant side effects such as dizziness and asthenia | –
COc1cc2nc(N3CCN(C(=O)C4CCCO4)CC3)nc(N)c2cc1OC (stereo not shown) [terazosin] | useful for treating BPH | untoward side effects | –
Clc1cccc(Cl)c1N=C1NCCN1 [clonidine] | – | dry mouth and sedation | –
CCC1=C(C(N)=O)C(c2ccc(F)c(F)c2)N(C(=O)NCCCN2CCC(C(=O)OC)(c3ccccc3)CC2)C(=O)N1 (single isomer, unassigned; (+)) [Example 20, (+)-5-Carboxamido-6-(3,4-difluorophenyl)-4-ethyl-1-{N-[3-(4-methoxycarbonyl-4-phenylpiperidin-1-yl)propyl]}carboxamido-2-oxo-1,2,3,6-tetrhydropyrimidine] | – | – | hα1a pKi [3]: 6.46; hα1b pKi [4]: 6.59; hα1c pKi [5]: 9.68
COc1cc2nc(N3CCN(C(=O)c4ccco4)CC3)nc(N)c2cc1OC [prazosin] | useful for treating BPH | – | side effects ([2]; in vivo): untoward side effects
